Experimental data: patent publication US20240110220A1, “DETECTING BETA-LACTAMASE ENZYME ACTIVITY” (COMMISSARIAT A L'ENERGIE ATOMIQUE ET AUX ENERGIES …, priority 2021, published 2024)

Test: Test strip by competition with hydrolysed cefotaxime added to the sample
Type: binding
Details: signal equivalent to the control
Description: The optimisation of these two parameters was carried out for the five antibodies selected. […] In parallel, hydrolysed cefotaxime was added in order to check that the antibody is indeed specific to the non-hydrolysed form.
For all these three parameters, a colour intensity scale was used to evaluate the results obtained on the test strips. This scale was defined from 1 to 10, where each value is characteristic of an increasing signal intensity.
96-well microplates were used for all these tests. […] Then, a strip composed of a sample paper, a nitrocellulose membrane and an absorbent paper, were deposited in the wells. An incubation of 10 minutes was performed, then the signal intensity was evaluated with the colour intensity scale.
A control was produced (condition at 0 ng/ml), in order to see the maximum signal that could be obtained on the TL (Table 4).
By way of example, other antibodies have been tested. The conditions of use of the antibodies are as follows: Antibody 1, DO0.5, 0.3 mg/ml of BSA-cefotaxime; Antibody 2, DO1, 0.3 mg/ml of BSA-cefotaxime; Antibody 3, DO0.5, 0.1 mg/ml of BSA-cefotaxime; Antibody 4, DO0.5, 0.3 mg/ml of BSA-cefotaxime; Antibody 5, DO0.5, 0.3 mg/ml of BSA-cefotaxime (Table 5).

Q: Which “recognition by the tracer antibody” value does the source give for `CO/N=C(\C(=O)N[C@H](C(=O)O)C1NC(C(=O)O)=C(COC(C)=O)CS1)c1csc(N)n1` (stereo partly shown) [hydrolysed cefotaxime] here?
A: The value was “not recognised”.
